Assay type in all cases: cell-based
The test system of experiment [1] is mantle cell lymphoma cell (Mino or JeKo-1). Briefly: Antiproliferative effect, MTS cell viability assay. The procedure, abridged: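 MTS read-out (formazan absorbance at 490 nm) after 72 h exposure of Mino cells to 0–1 μM compound (0.0001, 0.001, 0.01, 0.1, 1 μM). Palbociclib and abemaciclib served as positive controls.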
Another experiment has as its target T1, CDK6 (Homo sapiens, UniProt Q00534).
T1 construct: endogenous in cells
Briefly: CDK6 degradation (DC50, Dmax).

Another experiment concerns the target T2, CDK4 (Homo sapiens, UniProt P11802).
T2 construct: endogenous in cells
Kind of experiment: CDK4 degradation (DC50, Dmax).

[2] abbreviates: 72 h, mantle cell lymphoma cell (Mino or JeKo-1), MTS assay, read-out: IC50 (anti-proliferation).

Molecules are shown by their SMILES. Where two headings read alike, the source gives them in different places. Bounds are passed on as bounds.

T1 sequence (Q00534 whole entry): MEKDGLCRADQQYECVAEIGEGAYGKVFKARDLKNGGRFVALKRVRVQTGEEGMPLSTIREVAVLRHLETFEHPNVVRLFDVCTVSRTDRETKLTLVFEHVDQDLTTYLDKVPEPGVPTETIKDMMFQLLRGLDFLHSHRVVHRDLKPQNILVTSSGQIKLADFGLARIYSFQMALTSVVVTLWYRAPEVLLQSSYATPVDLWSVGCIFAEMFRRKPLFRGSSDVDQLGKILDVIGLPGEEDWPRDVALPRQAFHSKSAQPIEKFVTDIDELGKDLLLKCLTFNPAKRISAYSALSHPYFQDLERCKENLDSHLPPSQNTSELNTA
T2 sequence (P11802 whole entry): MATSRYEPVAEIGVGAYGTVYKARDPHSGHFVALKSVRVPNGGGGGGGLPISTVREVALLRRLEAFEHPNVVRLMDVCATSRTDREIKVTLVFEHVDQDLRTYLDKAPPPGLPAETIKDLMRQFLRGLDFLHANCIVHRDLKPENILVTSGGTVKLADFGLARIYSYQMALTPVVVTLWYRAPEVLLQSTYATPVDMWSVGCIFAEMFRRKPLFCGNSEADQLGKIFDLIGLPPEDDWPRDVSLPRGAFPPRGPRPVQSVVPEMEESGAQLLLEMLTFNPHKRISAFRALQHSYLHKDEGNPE

On to `Cc1nc2c(F)cc(-c3nc(Nc4ccc(CC5CCN(C(=O)C6CN(c7ccc(NC8CCC(=O)NC8=O)cc7)C6)CC5)cn4)ncc3F)cc2n1C(C)C` (stereo not shown) [Compound 146, 3-((4-(3-(4-((6-((5-fluoro-4-(4-fluoro-1-isopropyl-2-methyl-1H-benzo[d]imidazol-6-yl)pyrimidin-2-yl)amino)pyridin-3-yl)methyl)piperidine-1-carbonyl)azetidin-1-yl)phenyl)amino) piperidine-2,6-dione], for which the IC50 in experiment [1] (setting [2]) is 50 to 200 nM. On CDK6, this compound displayed a DC50 of 50 to 200 nM and a maximal degradation (Dmax) of more than 60%. Moreover, on CDK4, the DC50 fell in the range of 50 to 200 nM and the Dmax was more than 50%.
As for `CC(=O)c1c(C)c2cnc(Nc3ccc(N4CCN(C5CCN(C(=O)N6CCC(CN7CCN(c8ccc9c(c8)C(=O)N(C8CCC(=O)NC8=O)C9=O)CC7)CC6)CC5)CC4)cn3)nc2n(C2CCCC2)c1=O` (stereo not shown) [Compound 86, 5-(4-((1-(4-(4-(6-((6-acetyl-8-cyclopentyl-5-methyl-7-oxo-7,8-dihydropyrido[2,3-d]pyrimidin-2-yl)amino)pyridin-3-yl)piperazin-1-yl)piperidine-1-carbonyl)piperidin-4-yl)methyl)piperazin-1-yl)-2-(2,6-dioxopiperidin-3-yl) isoindoline-1,3-dione], in experiment [1] (setting [2]), the IC50 lay in the range of 50 to 200 nM. Besides, the half-maximal degradation concentration (DC50) at CDK6 and at CDK4 was 50 to 200 nM each time. The greatest degradation seen (Dmax) on CDK6 and on CDK4 was more than 60% in each case.
Turning to `CC(=O)c1c(C)c2cnc(Nc3ccc(N4CCN(C5CN(c6cccc7c6C(=O)N(C6CCC(=O)NC6=O)C7=O)C5)CC4)cn3)nc2n(C2CCCC2)c1=O` (stereo not shown) [Compound 79, 4-(3-(4-(6-((6-acetyl-8-cyclopentyl-5-methyl-7-oxo-7,8-dihydropyrido[2,3-d]pyrimidin-2-yl)amino)pyridin-3-yl)piperazin-1-yl)azetidin-1-yl)-2-(2,6-dioxopiperidin-3-yl)isoindoline-1,3-dione], the IC50 in experiment [1] (setting [2]) was 50 to 200 nM. At CDK6, this compound showed a 50% degradation concentration (DC50) of 50 to 200 nM and a Dmax of more than 60%. At CDK4, this compound had a half-maximal degradation concentration (DC50) of 50 to 200 nM and a Dmax of more than 60%.
As for `CC(=O)c1c(C)c2cnc(Nc3ccc(N4CCN(CC5CN(c6ccc7c(c6)C(=O)N(C6CCC(=O)NC6=O)C7=O)C5)CC4)cn3)nc2n(C2CCCC2)c1=O` (stereo not shown) [Compound 80, 5-(3-((4-(6-((6-acetyl-8-cyclopentyl-5-methyl-7-oxo-7,8-dihydropyrido[2,3-d]pyrimidin-2-yl)amino)pyridin-3-yl)piperazin-1-yl)methyl)azetidin-1-yl)-2-(2,6-dioxopiperidin-3-yl) isoindoline-1,3-dione], the IC50 in experiment [1] (setting [2]) was less than 50 nM. On CDK6, this compound gave a 50% degradation concentration (DC50) of less than 50 nM and a Dmax of more than 80%. On CDK4, this compound gave a DC50 of less than 50 nM and a Dmax of more than 80%.
As for `Cc1nc2c(F)cc(-c3nc(Nc4ccc(CN5CCN(C6CCN(c7ccc(N8CCC(=O)NC8=O)cc7)CC6)CC5)cn4)ncc3F)cc2n1C(C)C` [Compound 109, 1-(4-(4-(4-((6-((5-fluoro-4-(4-fluoro-1-isopropyl-2-methyl-1H-benzo[d]imidazol-6-yl)pyrimidin-2-yl)amino)pyridin-3-yl)methyl)piperazin-1-yl)piperidin-1-yl)phenyl) dihydropyrimidine-2,4(1H,3H)-dione], the IC50 in experiment [1] (setting [2]) is less than 50 nM. Moreover, the DC50 at CDK6 and on CDK4 was less than 50 nM throughout. The greatest degradation seen (Dmax) at CDK6 and at CDK4 was more than 80% in each case.
Take `CC(=O)c1c(C)c2cnc(Nc3ccc(N4CCN(CCCN(C)c5ccc6c(c5)CN(C5CCC(=O)NC5=O)C6=O)CC4)cn3)nc2n(C2CCCC2)c1=O` (stereo not shown) [Compound 58, 3-(5-((3-(4-(6-((6-acetyl-8-cyclopentyl-5-methyl-7-oxo-7,8-dihydropyrido[2,3-d]pyrimidin-2-yl)amino)pyridin-3-yl)piperazin-1-yl)propyl) (methyl)amino)-1-oxoisoindolin-2-yl) piperidine-2,6-dione]: in experiment [1] (setting [2]), the IC50 is 50 to 200 nM. For the same compound, on CDK6, the half-maximal degradation concentration (DC50) was 50 to 200 nM and the Dmax was more than 60%. At CDK4, this compound returned a half-maximal degradation concentration (DC50) of 50 to 200 nM and a Dmax of more than 60%.
`CC(=O)c1c(C)c2cnc(Nc3ccc(N4CCN(CCCCN(C)c5ccc6c(c5)CN(C5CCC(=O)NC5=O)C6=O)CC4)cn3)nc2n(C2CCCC2)c1=O` (stereo not shown) [Compound 60, 3-(5-((4-(4-(6-((6-acetyl-8-cyclopentyl-5-methyl-7-oxo-7,8-dihydropyrido[2,3-d]pyrimidin-2-yl)amino)pyridin-3-yl)piperazin-1-yl)butyl)(methyl)amino)-1-oxoisoindolin-2-yl) piperidine-2,6-dione]: in experiment [1] (setting [2]), the IC50 was in the range of 50 to 200 nM. On CDK6, this compound returned a DC50 of 50 to 200 nM and a maximal degradation (Dmax) of more than 60%. At CDK4, this compound displayed a 50% degradation concentration (DC50) of 50 to 200 nM and a Dmax of more than 60%.
With `CC(=O)c1c(C)c2cnc(Nc3ccc(N4CCN(C(=O)N5CCC(CN6CCN(c7ccc8c(c7)CN(C7CCC(=O)NC7=O)C8=O)CC6)CC5)CC4)cn3)nc2n(C2CCCC2)c1=O` (stereo not shown) [Compound 12, 3-(5-(4-((1-(4-(6-((6-acetyl-8-cyclopentyl-5-methyl-7-oxo-7,8-dihydropyrido[2,3-d]pyrimidin-2-yl)amino)pyridin-3-yl)piperazine-1-carbonyl)piperidin-4-yl)methyl)piperazin-1-yl)-1-oxoisoindolin-2-yl)piperidine-2,6-dione], in experiment [1] (setting [2]), the IC50 was in the range of 50 to 200 nM. At CDK6, this compound showed a half-maximal degradation concentration (DC50) of more than 200 nM and a Dmax of more than 60%. At CDK4, this compound had a DC50 of more than 200 nM and a maximal degradation (Dmax) of more than 60%.
As to `CC(=O)c1c(C)c2cnc(Nc3ccc(N4CCN(C(=O)N5CCN(C6CCN(c7ccc8c(c7)C(=O)N(C7CCC(=O)NC7=O)C8=O)CC6)CC5)CC4)cn3)nc2n(C2CCCC2)c1=O` (stereo not shown) [Compound 5, 5-(4-(4-(4-(6-((6-acetyl-8-cyclopentyl-5-methyl-7-oxo-7,8-dihydropyrido[2,3-d]pyrimidin-2-yl)amino)pyridin-3-yl)piperazine-1-carbonyl)piperazin-1-yl)piperidin-1-yl)-2-(2,6-dioxopiperidin-3-yl)isoindoline-1,3-dione], the IC50 in experiment [1] (setting [2]) was 50 to 200 nM. On CDK6, this compound gave a half-maximal degradation concentration (DC50) of more than 200 nM and a Dmax of more than 60%. Besides, at CDK4, the 50% degradation concentration (DC50) was more than 200 nM and the Dmax was more than 60%.
For `CC(=O)c1c(C)c2cnc(Nc3ccc(N4CCN(CC5CCN(c6cccc7c6C(=O)N(C6CCC(=O)NC6=O)C7=O)CC5)CC4)cn3)nc2n(C2CCCC2)c1=O` (stereo not shown) [Compound 78, 4-(4-((4-(6-((6-acetyl-8-cyclopentyl-5-methyl-7-oxo-7,8-dihydropyrido[2,3-d]pyrimidin-2-yl)amino)pyridin-3-yl)piperazin-1-yl)methyl)piperidin-1-yl)-2-(2,6-dioxopiperidin-3-yl) isoindoline-1,3-dione], in experiment [1] (setting [2]), the IC50 fell in the range of 50 to 200 nM. The 50% degradation concentration (DC50) on CDK6 and on CDK4 was 50 to 200 nM throughout. Further, the greatest degradation seen (Dmax) at CDK6 and on CDK4 was more than 60% in each case.
As to `Cc1nc2c(F)cc(-c3nc(Nc4ccc(CN5CCN(CC6CCN(c7ccc(NC8CCC(=O)NC8=O)cc7)CC6)CC5)cn4)ncc3F)cc2n1C(C)C` (stereo not shown) [Compound 152, 3-((4-(4-((4-((6-((5-fluoro-4-(4-fluoro-1-isopropyl-2-methyl-1H-benzo[d]imidazol-6-yl)pyrimidin-2-yl)amino)pyridin-3-yl)methyl)piperazin-1-yl)methyl)piperidin-1-yl)phenyl)amino) piperidine-2,6-dione], in experiment [1] (setting [2]), the IC50 was less than 50 nM. At CDK6, the DC50 lay in the range of 50 to 200 nM and the Dmax is more than 80%. On CDK4, this compound yielded a 50% degradation concentration (DC50) of less than 50 nM and a maximal degradation (Dmax) of more than 80%.
With `CC(=O)c1c(C)c2cnc(Nc3ccc(N4CCN(C5CCN(C(=O)N6CCN(c7ccc8c(c7)C(=O)N(C7CCC(=O)NC7=O)C8=O)CC6)CC5)CC4)cn3)nc2n(C2CCCC2)c1=O` (stereo not shown) [Compound 35, 5-(4-(4-(4-(6-((6-acetyl-8-cyclopentyl-5-methyl-7-oxo-7,8-dihydropyrido[2,3-d]pyrimidin-2-yl)amino)pyridin-3-yl)piperazin-1-yl)piperidine-1-carbonyl)piperazin-1-yl)-2-(2,6-dioxopiperidin-3-yl)isoindoline-1,3-dione], in experiment [1] (mantle cell lymphoma cell (Mino or JeKo-1); MTS assay, 72 h; read-out: IC50 (anti-proliferation)), the IC50 lay within 50 to 200 nM. Further, at CDK6, the DC50 is more than 200 nM and the Dmax is more than 60%. On CDK4, this compound showed a DC50 of 50 to 200 nM and a maximal degradation (Dmax) of more than 60%.
Regarding `CC(=O)c1c(C)c2cnc(Nc3ccc(N4CCN(CC5CN(c6ccc7c(c6)CN(C6CCC(=O)NC6=O)C7=O)C5)CC4)cn3)nc2n(C2CCCC2)c1=O` (stereo not shown) [Compound 118, 3-(5-(3-((4-(6-((6-acetyl-8-cyclopentyl-5-methyl-7-oxo-7,8-dihydropyrido[2,3-d]pyrimidin-2-yl)amino)pyridin-3-yl)piperazin-1-yl)methyl)azetidio-1-yl)-1-oxoisoindolin-2-yl)piperidine-2,6-dione], the IC50 in experiment [1] (setting [2]) was less than 50 nM. On CDK6, this compound came in with a half-maximal degradation concentration (DC50) of less than 50 nM and a Dmax of more than 80%. At CDK4, this compound had a 50% degradation concentration (DC50) of less than 50 nM and a Dmax of more than 80%.
Turning to `Cc1nc2c(F)cc(-c3nc(Nc4ccc(CC5CCN(CC6CN(c7ccc8c(c7)CN(C7CCC(=O)NC7=O)C8=O)C6)CC5)cn4)ncc3F)cc2n1C(C)C` (stereo not shown) [Compound 140, 3-(5-(3-((4-((6-((5-fluoro-4-(4-fluoro-1-isopropyl-2-methyl-1H-benzo[d]imidazol-6-yl)pyrimidin-2-yl)amino)pyridin-3-yl)methyl)piperidin-1-yl)methyl)azetidin-1-yl)-1-oxoisoindolin-2-yl)piperidine-2,6-dione], the IC50 in experiment [1] (setting [2]) was less than 50 nM. In addition, on CDK6, the half-maximal degradation concentration (DC50) is less than 50 nM and the Dmax is more than 80%. On CDK4, this compound came in with a DC50 of less than 50 nM and a Dmax of more than 80%.
